One data set relates to patients with cGVHD. The settings on record: cited from earlier work.
The next data set is described as follows: Solubility. Format: physicochemical. The settings on record: water.
For the next data set, the target named is T1, ROCK2 (Rattus norvegicus, UniProt Q62868).
T1 construct: Full length rat ROCK1 and ROCK2 proteins were isolated from various tumor cell lines or tissues by immunoabsorption; endogenous in cells
Put plainly: Inhibition of ROCK2 enzymatic activity, immunoabsorbed full length enzyme, S6 kinase substrate peptide, [γ33P]ATP. In kind it is biochemical. The settings on record: for Ki: ROCK2. The method, then: Full length rat ROCK1 and ROCK2 proteins were isolated from various tumor cell lines or tissues by immunoabsorption to 24-well microtiter plates pre-coated with antibodies specific for each isozyme. Reactions were initiated by the addition of S6 kinase substrate peptide, [γ33P]ATP, and study drug, and incubated at 37° C. for 20 minutes. Reactions were terminated by addition of phosphoric acid and the radioactivity was quantified using standard methods.

Data set [1] is described as follows: Phase 1 study part 1: absolute bioavailability, oral 200-mg tablet plus [14C]-belumosudil IV microtracer, plasma PK. In kind it is in vivo, human. The settings on record: 100 μg IV; for half-life: iv. The protocol:
(§1) This was a single-center, nonrandomized, open-label, 2-part study in 5 healthy male subjects aged 30 to 65 years. All oral doses were administered following an overnight fast and a standard breakfast on the day of dosing.
(timed to occur at the expected maximum concentration [Cmax]). To determine absolute bioavailability, a microtracer dose was chosen as it negates the need for an IV formulation with good stability. Additionally, due to use of a very low dose, further nonclinical studies such as local tolerance and general toxicology studies were not warranted.
Blood samples for IV [^14C]-belumosudil PK analysis and total radioactivity were collected at −0.25, −0.16, −0.08, 0, 0.08, 0.16, 0.25, 0.5, 0.75, 1, 1.5, 2, 3, 4, 5, 6, 8, 10, 12, 22, 34, and 46 hours after the end of infusion (EOI). All samples were processed to plasma within 30 minutes of collection by centrifugation at 2000 g for 10 minutes at 4° C., and
Total [^14C]-belumosudil concentrations were determined by accelerator mass spectrometry (AMS). […] Selected samples were diluted with commercial plasma to ensure that concentrations would fall within the acceptable range for AMS analysis. The samples were converted to graphite through combustion to CO2 followed by reduction to graphite. The graphite targets were then analyzed by AMS (LLOQ of 0.00489, 0.00557, 0.00485, 0.00402, and 0.00372 ng equiv/mL for individual subjects). All ^14C data was background-corrected based on predose [^14C]-belumosudil concentrations.
Eluate fractions corresponding to [^14C]-belumosudil were collected before AMS analysis (LLOQ of 1.55 pg equiv/mL).
(§2) PK parameter estimates were used to calculate absolute bioavailability and metabolite-to-parent ratio.

Data set [2] is described as follows: Phase 1 study part 2: plasma and whole-blood PK after oral 200 mg [14C]-belumosudil capsule. Format: in vivo, human. The settings on record: for F, AUCinf (bioavailability) / F, Cmax (bioavailability): oral [14C]-belumosudil 200-mg capsule vs IV [14C]-belumosudil dose of part 1; for half-life: 200 mg. The protocol:
as §1
(§3) For the mass balance and metabolic profiling study (part 2), following at least a 7-day washout from part 1, subjects received a single oral dose of a 200 mg [^14C]-belumosudil capsule containing NMT 9.8 MBq [^14C]. This level of radioactivity was selected based on human dosimetry calculations conducted by Public Health England that determined a radioactive oral dose of NMT 9.8 MBq would be necessary to permit adequate metabolite profiling of key samples. Taking the part 1 microtracer dose into account, the total committed effective dose subjects received in the study was 3 mSv, which falls within the International Commission on Radiological Protection Guidelines for Category IIb studies. Additionally, to remain within the limit for radioactive dose approved by the UK Administration of Radioactive Substances Advisory Committee, the target-specific activity of [^14C]-belumosudil was set to 90% of the threshold radioactive dosing limit.
Whole-blood samples for total radioactivity and plasma samples for metabolite pro-filing and identification were collected before dosing and 1, 4, 8, 12, 24, 48, 72, 96, 120, 144, and 168 hours after dosing. […] Whole-blood samples for total radioactivity were collected into tripotassium ethylene-diaminetetraacetic acid tubes and stored at 2 to 8° C. pending analysis. […] (metabolite profiling samples).
(§4) Total radioactivity whole-blood, plasma, and urine samples were prepared for LSC by mixing with scintillation fluid. In addition, aliquots of whole blood were solubilized with AquiGest tissue solubilization fluid and plasma samples were mixed with 10 mM of phosphate-buffered saline. Urine and fecal samples were pooled per subject by time interval before analysis. In addition, fecal samples were combusted using an automatic sample oxidizer prior to LSC. Radioactivity in all samples was measured using an LSC with automatic external standard quench correction (2300TR, 2900TR, and 3100TR Tri-Carb, Scintillation Counters; PerkinElmer, Waltham, Massachusetts), with samples counted for 4 minutes. The LLOQ was considered to be twice the background value for samples of the same type (1.39 [urine], 23.9 [feces], 35.5 [whole blood], and 30.9 [plasma] ng equivalents [free base]/g or mL).
as §2

The nature of data set [3]: Phase 1 study part 2: mass balance recovery of total radioactivity in excreta. In kind it is in vivo, human. The settings on record: oral 200-mg [14C]-belumosudil capsule. The protocol:
as §3
Urine for total radioactivity and metabolite profiling and identification was collected before dosing (the first void of the day) and pooled from 0 to 6, 6 to 12, and 12 to 24 hours after dosing followed by daily (24-hour) collections until day 8/discharge. Urine samples were pooled per interval and stored at 2 to 8° C. pending analysis. Feces were collected from admission until before dosing and then daily (24-hour) collections until discharge. Fecal samples were pooled per time interval and stored at −20° C. pending analysis.
as §4

[4] abbreviates: arithmetic mean (standard deviation), Part 1, [14C]-belumosudil.
Where [5] appears, read: arithmetic mean (standard deviation), Part 1, total radioactivity.
[6] abbreviates: geometric mean (geometric CV %), Part 1, [14C]-belumosudil.
[7] abbreviates: geometric mean (geometric CV %), Part 1, total radioactivity.
Where [8] appears, read: arithmetic mean (standard deviation), Part 2, [14C]-belumosudil 200-mg capsule.
The mark [9] stands for this setting: arithmetic mean (standard deviation), Part 2.
The mark [10] stands for this setting: arithmetic mean (standard deviation), Part 2, total radioactivity, 200-mg capsule.
Where [11] appears, read: geometric mean (geometric CV %), Part 2, [14C]-belumosudil 200-mg capsule.
Where [12] appears, read: geometric mean (geometric CV %), Part 2.
Setting [13] is: geometric mean (geometric CV %), Part 2, total radioactivity, 200-mg capsule.

“And” between values parts separate entries of the source, which are not always exact repeats. Equal entries are not always repeated. Structures can show the parent of a compound that is named as a salt. Marks after values point to notes of the source that are not given here.

T1 sequence (Q62868 whole entry): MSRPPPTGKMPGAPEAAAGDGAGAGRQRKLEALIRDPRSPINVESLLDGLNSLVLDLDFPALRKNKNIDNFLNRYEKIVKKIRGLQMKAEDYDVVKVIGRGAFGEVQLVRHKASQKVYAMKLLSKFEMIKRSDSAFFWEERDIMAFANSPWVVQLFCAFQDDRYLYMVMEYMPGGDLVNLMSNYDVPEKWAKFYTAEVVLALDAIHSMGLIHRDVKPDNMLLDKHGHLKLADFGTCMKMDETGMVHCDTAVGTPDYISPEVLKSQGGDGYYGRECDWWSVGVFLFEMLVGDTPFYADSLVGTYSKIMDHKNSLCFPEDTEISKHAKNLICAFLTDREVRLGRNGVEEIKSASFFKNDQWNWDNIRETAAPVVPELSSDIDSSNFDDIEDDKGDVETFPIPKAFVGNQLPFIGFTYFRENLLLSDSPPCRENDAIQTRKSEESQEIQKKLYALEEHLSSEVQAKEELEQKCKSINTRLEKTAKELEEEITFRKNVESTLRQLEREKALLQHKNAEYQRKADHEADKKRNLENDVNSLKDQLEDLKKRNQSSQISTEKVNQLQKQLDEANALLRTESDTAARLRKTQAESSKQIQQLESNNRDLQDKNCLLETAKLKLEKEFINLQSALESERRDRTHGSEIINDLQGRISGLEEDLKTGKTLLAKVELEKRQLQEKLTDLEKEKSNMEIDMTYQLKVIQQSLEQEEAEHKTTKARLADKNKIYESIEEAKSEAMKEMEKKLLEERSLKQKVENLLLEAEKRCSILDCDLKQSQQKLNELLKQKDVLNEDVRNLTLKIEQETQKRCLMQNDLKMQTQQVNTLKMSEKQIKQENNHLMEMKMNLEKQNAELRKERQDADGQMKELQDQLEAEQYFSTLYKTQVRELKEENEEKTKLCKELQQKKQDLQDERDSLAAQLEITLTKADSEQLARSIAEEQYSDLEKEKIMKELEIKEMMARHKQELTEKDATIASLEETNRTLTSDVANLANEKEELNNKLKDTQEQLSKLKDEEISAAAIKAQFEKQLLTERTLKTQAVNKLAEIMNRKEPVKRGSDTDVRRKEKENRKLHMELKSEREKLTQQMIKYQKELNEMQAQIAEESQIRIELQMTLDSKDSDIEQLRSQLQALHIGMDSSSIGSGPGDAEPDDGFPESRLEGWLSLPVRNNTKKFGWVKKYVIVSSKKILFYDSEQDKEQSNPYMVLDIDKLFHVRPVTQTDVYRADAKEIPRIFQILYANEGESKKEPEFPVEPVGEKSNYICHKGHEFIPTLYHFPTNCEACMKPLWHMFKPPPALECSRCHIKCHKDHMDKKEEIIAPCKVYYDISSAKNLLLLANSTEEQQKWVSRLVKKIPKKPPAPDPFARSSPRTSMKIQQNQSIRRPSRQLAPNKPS

Regarding `C=CC(=O)N1CCC[C@@H](n2nc(-c3ccc(Oc4ccccc4)cc3)c3c(N)ncnc32)C1` [ibrutinib], the “discontinuation rate because of treatment-emergent adverse events (TEAEs)” value in the data set on patients with cGVHD is 43%.
For `CC(C)NC(=O)COc1cccc(-c2nc(Nc3ccc4[nH]ncc4c3)c3ccccc3n2)c1` [Belumosudil mesylate, 2-{3-[4-(1H-indazol-5-ylamino)-2-quinazolinyl]phenoxy}-N-(propan-2-yl) acetamide methanesulfonate (1:1)], in the data set “Solubility”, the solubility in water result was “practically insoluble in water”.
As usually defined, the Ki is the equilibrium dissociation constant of an inhibitor or competing ligand from its target. For the compound `CC(N)C1CCC(C(=O)Nc2ccncc2)CC1` (centres unmarked) [Y-27362], affinity at ROCK2 was put at a Ki of 45 ± 5 nM.
As usually defined, the Tmax is the time at which the peak concentration occurs. Regarding `CC(C)NC(=O)COc1cccc(-[14c]2nc(Nc3ccc4[nH]ncc4c3)c3ccccc3n2)c1` [[^14C]-Belumosudil], in data set [1] (setting [4]), the AUCextrap is reported as 0.63 (0.46) %, the AUCinf is reported as 6720 (2220) ng or ng equiv × h/mL, the AUClast is given as 6680 (2220) ng or ng equiv × h/mL and the Clearanance is 264 (64.3) mL/min. For the same compound, in data set [1] (setting [4]), the Cmax is given as 4530 (830) ng or ng equiv/mL; the Volume is 138 (59.8) L; the “Volume, ss” value is on record as 54.1 (10.7) L. Also, in data set [1] (setting [5]), the AUCextrap is given as 8.48 (2.84) %, the Clearanance is 122 (29.0) mL/min and the Volume is 194 (53.2) L. In data set [1] (setting [6]), the AUCextrap was 0.53 (66.3); %, the AUCinf was 6480 (29.3); ng or ng equiv × h/mL, the AUClast was 6440 (29.5); ng or ng equiv × h/mL and the Cmax is on record as 4480 (18.0); ng or ng equiv/mL. Also, in data set [1] (setting [6]), the “T1/2 (terminal half-life)” value is listed as 5.86 (35.8); h; the Volume is on record as 130 (38.9); L; the “Volume, ss” value is given as 53.2 (20.6); L. In data set [1] (setting [7]), the AUCextrap is reported as 8.09 (35.4); %; the Clearanance is 120 (23.7); mL/min; the Volume is given as 186 (35.4); L; the “Volume, ss” value is 98.2 (23.4) L. Besides, in data set [1] (male, human, plasma, 100 ug, median (min-max), Part 1 (n = 5), [14C]-belumosudil), the Tmax came to 0.25 h. Moreover, in data set [1] (male, human, plasma, 100 ug, arithmetic mean (standard deviation), Part 1, [14C]-belumosudil, read-out: T1/2 (converted)), the half-life was 6.15 h. Also, the half-life in data set [1] (male, human, plasma, 100 ug, geometric mean (geometric CV %), Part 1, [14C]-belumosudil, read-out: T1/2 (terminal half-life) (converted)) is 5.9 h. In addition, in data set [2] (setting [8]), the AUCextrap is 3.08 (2.16) %, the AUCinf was 8490 (2680) ng or ng equiv × h/mL and the “Clearanance (apparent clearance)” value is recorded as 435 (173) mL/min. Also, in data set [2] (setting [9]), the “F, AUCinf (bioavailability)” value is given as 63.8 (15.7)^b % and the “F, Cmax (bioavailability)” value is reported as 63.8 (15.7)^b %. Besides, in data set [2] (setting [10]), the AUCextrap was 10.1 (2.79) % and the Clearanance is recorded as 126 (59.7) mL/min. In data set [2] (setting [11]), the AUCextrap is 2.46 (92.9); %, the AUCinf is reported as 8100 (37.0); ng or ng equiv × h/mL, the AUClast is reported as 7850 (39.3); ng or ng equiv × h/mL and the “Clearanance (apparent clearance)” value is 412 (37.0); mL/min. Also, the Cmax in data set [2] (setting [11]) is on record as 1680 (32.1); ng or ng equiv/mL. In data set [2] (setting [12]), the “F, AUCinf (bioavailability)” value is 62.2 (26.6)^b; % and the “F, Cmax (bioavailability)” value was 62.2 (26.6)^b; %. Also, in data set [2] (setting [13]), the AUCextrap is recorded as 9.76 (31.7); % and the Clearanance is reported as 118 (46.1); mL/min. The compound further gave a half-life in data set [2] (male, human, plasma, oral, arithmetic mean (standard deviation), Part 2, [14C]-belumosudil 200-mg capsule) of 5.39 h. The compound also had a half-life in data set [2] (male, human, plasma, oral, geometric mean (geometric CV %), Part 2, [14C]-belumosudil 200-mg capsule) of 5.11 h. Moreover, the Tmax in data set [2] (male, human, plasma, oral, median (min-max), Part 2 (n = 5), [14C]-belumosudil 200-mg capsule) was 2 h. In data set [3], the “radioactivity recovered in excreta” value was 88.5%; the “radiolabeled dose recovered in urine” value is less than 5%; the “total radioactivity recovered in feces” value is 84.6% and 85%; the “total radioactivity recovered in feces within the first 24 hours after dosing” value is listed as “≈ 27.4%”. The “total radioactivity recovered in urine within the first 24 hours after dosing” value in data set [3] was 3.8%.
For `O=C(O)COc1cccc(-c2nc(Nc3ccc4[nH]ncc4c3)c3ccccc3n2)c1` [KD025m2, 2-(3-(4-(1H-indazol-5-ylamino)quinazolin-2-yl)phenoxy)acetic acid], affinity on ROCK2 was put at a Ki of 338 ± 55 nM. The “inhibition of ROCK2 (Ki) relative to belumosudil” value at ROCK2 (fold lower inhibition than belumosudil) is “approximately 6 fold”.

(Values after patent US11952369B2 (Kadmon Corporation, LLC, priority 2022, dated 2024).)
